Data as given in patent US9302993B2, “8-hydroxy quinoline derivatives” (PRANA BIOTECHNOLOGY LIMITED, priority 2002, dated 2016).
Where “and” joins values, the source holds several entries; their conditions need not be identical. Equal values may be shown once. Read-outs that look alike come from different tables or passages of the source.

Tests used:
Neuronal cortical cells = experiment: Assay for test compound cytoxicity, MTS (Assay 3(d)); format: cell-based, mouse
[1] = tested on: Aβ in extract of tissue from post mortem human AD brain; experiment: Human brain amyloid solubilisation assay (Assay 9, BAS); format: biochemical
Procedure, shortened: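 Plaque-bearing post mortem AD cortex homogenised in ice-cold PBS pH 7.4 and spun 100,000×g, 30 min to separate PBS-soluble supernatant from insoluble pellet. Aβ in each fraction resolved on Tris-Tricine 10-20% gels, immunoblotted with W02 antibody and ECL, quantified by densitometry against synthetic Aβ40 standards (0.5, 1, 2 ng).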

[2] = tested on: Neuronal cortical cells treated with Aβ1-42; experiment: Assay for Aβ neurotoxicity and Aβ neuroprotection (Assay 3(c)); format: cell-based, mouse; settings: 20 uM Aβ1-42, 4 days, MTS
Description: Media was then replaced with Neurobasal media (Invitrogen Life Technologies) and B27 supplements (Invitrogen Life Technologies). Cultures were maintained at 37° C. in 5% CO2. Prior to experimentation, the culture medium was replaced with Neurobasal media and B27 minus antioxidants (Invitrogen Life Technologies).
(c) Assay for Aβ Neurotoxicity and Aβ Neuroprotection
Neuronal cortical cells were cultured for five days as per Assay 2. On day six the neurobasal (NB) media (Invitrogen Life Technologies) and B27 supplement (Invitrogen Life Technologies) were replaced with NB media and B27 supplement (no antioxidants). On day six, test compounds were individually added to the neuronal cell cultures:
Aβ was initially dissolved in 20 mM NaOH to a concentration of 1 mM and sonicated for 5 minutes. The peptide was then diluted in H2O and 10×PBS to a final concentration of 200 uM Aβ in 1×PBS. The peptide was again sonicated for 5 minutes and then spun at 14000 rpm for 5 min and transferred to a fresh tube.
The test compounds were dissolved in 100% DMSO to a concentration of 2.5 mM (10 mM if excess compound was weighed out per vial—then diluted to 2.5 mM). […] Test compounds were not added directly to cells, instead they were added to a 48 well ‘Drug Plate’ as comprised below:
The Drug Plate was incubated at 37° C. for 15 mins. 200 ul of each well was added in triplicate to the corresponding cell plate. The cell plate was incubated at 37 C, for 4 days.
On the 4th day after treating the cells the assay is completed by adding MTS to the cells.

[3] = molecular target: T1, hydrogen peroxide generation by Aβ in the presence of copper (Homo sapiens, UniProt P05067); experiment: Fluorometric H2O2 assay (Assay 1); format: biochemical; settings: DCF/HRP, 37 C 60 min, several values in one cell = repeat determinations
T1 construct: The reaction solutions contained Aβ 1-42 at concentrations in the range of 50 nM to 1 μM
Procedure, shortened: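 Aβ1-42 (50 nM–1 μM) with Cu-glycine (2 Cu-Gly : 1 Aβ) and a reductant (dopamine 5 μM or ascorbic acid) was incubated 60 min at 37 °C in PBS pH 7.4 with test compound. H2O2 was detected with 100 μM deacetylated DCF and 0.1 μM HRP by fluorescence against H2O2 standards.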

[4] = BL6J×129sv, mouse, 4 days, 1 uM
[5] = BL6J×129sv, mouse, 4 days, 10 uM
[6] = solubilising plaques relative to PBS
[7] = Aβ 1-42 with Cu-Gly, read-out: Peroxide IC50

T1 sequence (P05067 672-713 limits assumed): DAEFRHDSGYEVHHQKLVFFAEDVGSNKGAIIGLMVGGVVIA

Compound | Cell viability (% viable cells, MTS) (Neuronal cortical cells; 1 uM, 4 days, in %) | Viable 10 uM (Neuronal cortical cells; 10 uM test compound, repeated lines = repeat determinations, in %) | Cell viability (% viable cells, MTS) (Neuronal cortical cells; 10 uM, 4 days, in %) | Cell viability (% viable cells, MTS) (Neuronal cortical cells; 0.1 um, 4 days) [%] | BAS Score [1] | % inhibition Abeta toxicity [2] [%] | IC50 ([3]; Peroxide IC50, Aβ 1-42 with Cu-Gly) [nM] | Test Compound Cytoxicity 0.1 um (Neuronal cortical cells; BL6J×129sv, mouse, 4 days) [%] | Test Compound Cytoxicity 1 uM (Neuronal cortical cells; [4]) | Test Compound Cytoxicity 10 uM (Neuronal cortical cells; [5]) | BAS Score [1, 6] | IC50 [3, 7] | Viable 10 uM (Neuronal cortical cells; [5])
Nc1ccc2cccc(O)c2n1 [compound 54] | 97 | 99.57 | 61 | 89 | + | 100 | 1000 | – | – | – | – | – | –
CN(c1ccc2cccc(O)c2n1)c1ccc2cccc(O)c2n1 [compound 56] | – | – | – | – | – | 17 | – | 108 | 74 | 31 | + | 700 nM | –
Oc1ccc(/C=C/c2ccc3cccc(O)c3n2)cc1 [compound 89] | – | – | – | – | – | −31 | – | 87 | 92 | 101 | + | 3000 nM | 74.28
Oc1c(Br)cc(-c2ccccc2)c2cccnc12 [compound 806] | – | – | – | – | – | 36 | – | 99 | 78 | 38 | ++ | < 1200 nM | –
COc1cccc(-c2cc(Cl)c3cccnc3c2O)c1 [compound 810] | – | – | – | – | – | 11 | – | 100 | 85 | 57 | + | > 10000 nM | –
Cc1ccccc1-c1cc(Cl)c2cccnc2c1O [compound 854] | – | – | – | – | – | 22 | – | 94 | 81 | 36 | + | < 780 nM | –
O=C(NCCc1c[nH]cn1)c1ccc2cccc(O)c2n1 [compound 948] | – | – | – | – | – | 9 | – | 100 | 79 | 85 | + | 190 nM | 106.66
O=C(NCCc1ccccn1)c1ccc2cccc(O)c2n1 [compound 950] | – | – | – | – | – | 5 | – | 95 | 88 | 89 | + | 250 nM | 92.8
O=C(Nc1nccs1)c1ccc2cccc(O)c2n1 [compound 952] | – | – | – | – | – | 13 | – | 98 | 91 | 53 | + | < 810 nM | 99.52
Cc1cnc(NC(=O)c2ccc3cccc(O)c3n2)s1 [compound 953] | – | – | – | – | – | 25 | – | 101 | 85 | 53 | + | < 4240 nM and 620 nM | 67.8
